The source of these data is paper PMC7717712, “The effects of cardiac drugs on human erythrocyte carbonic anhydrase I and II isozymes” (Journal of Enzyme Inhibition and Medicinal Chemistry, 2020).

In series [1] the target is T1, human carbonic anhydrase I (hCA I) (Homo sapiens, UniProt P00915).
T1 construct: from tissue
The series is described as follows: CO2 hydratase activity assay (Maren method), hCA I. The series is classed as biochemical. On the procedure:
(§1) Blood samples (25 ml) from healthy human volunteers were collected. They were centrifuged at 1000g for 20 min at 4 °C, and the supernatant was removed. The packed erythrocytes were washed three times with 0.9% NaCl and then were hemolyzed in cold water. The pH of the hemolysate was adjusted to 8.5 with the solid Tris base. The 25-ml hemolysate was applied to an affinity column containing y Sepharose 4B-ethylene diamine-4-isothiocyanato-benzenesulfonamide[14]. CA isozymes were then eluted with 0.1 M NaCl/25 mM Na2HPO4 (pH 6.3) and 0.1 M CH3COONa/0.5 M NaClO4 (pH 5.6), which recovered hCA I and II, respectively.
(§2) CA activity was measured by the Maren method based on the determination of the time required for the pH to decrease from 10.0 to 7.4 due to CO2 hydration. The assay solution was 0.5 M Na2CO3/0.1 M NaHCO3 (pH 10.0), and phenol red was added as the pH indicator. Carbon dioxide-hydratase activity was calculated in enzyme units (EU) with the following equation: t0 – tc/tc, where t0 and tc are the times for the pH change of the nonenzymatic and the enzymatic reactions, respectively.
(§3) The drugs were triturated in a porcelain mortar pestle. Stock solutions of both drugs were prepared in dimethyl sulfoxide (DMSO). Different concentrations of the drugs were added to the enzyme activity determination medium with a total volume of 4.2 ml. The duration (in seconds) of the colour change from red to yellow in solution was measured in a 10-ml glass tube with a diameter of 1 cm. Control cuvette activity in the absence of the inhibitor was set at 100%. All compounds were tested in triplicate at each concentration used. For each inhibitor, an activity %–[inhibitor] graph was drawn (data not shown).

In series [2] the target is T2, human carbonic anhydrase II (hCA II) (Homo sapiens, UniProt P00918).
T2 construct: from tissue
Put plainly: CO2 hydratase activity assay (Maren method), hCA II. The series is classed as biochemical. On the procedure: as §1, §2, §3

Series [3] has as its target T1, human carbonic anhydrase I (hCA I). Put plainly: Esterase activity assay (4-nitrophenyl-acetate), hCA I. The series is classed as biochemical. On the procedure:
(§4) Blood samples (25 ml) from healthy human volunteers were collected. They were centrifuged at 1000g for 20 min at 4 °C, and the supernatant was removed. The packed erythrocytes were washed three times with 0.9% NaCl and then were hemolyzed in cold water. The pH of the hemolysate was adjusted to 8.5 with the solid Tris base. The 25-ml hemolysate was applied to an affinity column containing y Sepharose 4B-ethylene diamine-4-isothiocyanato-benzenesulfonamide[14].
(§5) The inhibitory effects of the drugs on enzyme activities were tested under in vitro conditions.

Series [4] concerns the target T2, human carbonic anhydrase II (hCA II). The series is described as follows: Esterase activity assay (4-nitrophenyl-acetate), hCA II. The series is classed as biochemical. On the procedure: as §4, §5
Another series has as its system aldehyde oxidase. On the set-up: method as in PMID 14681337. Conditions: read-out: aldehyde oxidase inhibition (concentration printed without endpoint name); cited from earlier work.
The next series has as its system CYP3A4. Also noted: method as in earlier work. The note with it: concentration-dependent; read-out: IC50, CYP3A4 enzyme activity; cited from earlier work.
The subject of series [5] is 15 hCA isoforms (hCA I–XIV). Conditions: cited from earlier work.
The target of series [6] is glucose-6-phosphate dehydrogenase. On the set-up: method as in PMID 29947262. The note with it: cited from earlier work.
For series [7], the system named is CA-I levels / atherosclerosis. Also noted: method as in PMID 31354482. The note with it: cited from earlier work.
Where [8] appears, read: hydratase method, enzyme purified from human erythrocytes, read-out: IC50 (hydratase) hCA I.
Setting [9] is: hydratase method, enzyme purified from human erythrocytes, read-out: IC50 (hydratase) hCA II.
Where [10] appears, read: esterase method, 4-nitrophenyl-acetate, 348 nm, 25 °C, read-out: IC50 (esterase) hCA I.
The mark [11] stands for this setting: esterase method, 4-nitrophenyl-acetate, 348 nm, 25 °C, read-out: IC50 (esterase) hCA II.

“Also recorded” adds a separate entry of the source. Where a name gives a salt, the structure may show the parent alone.

T1 sequence (P00915 whole entry): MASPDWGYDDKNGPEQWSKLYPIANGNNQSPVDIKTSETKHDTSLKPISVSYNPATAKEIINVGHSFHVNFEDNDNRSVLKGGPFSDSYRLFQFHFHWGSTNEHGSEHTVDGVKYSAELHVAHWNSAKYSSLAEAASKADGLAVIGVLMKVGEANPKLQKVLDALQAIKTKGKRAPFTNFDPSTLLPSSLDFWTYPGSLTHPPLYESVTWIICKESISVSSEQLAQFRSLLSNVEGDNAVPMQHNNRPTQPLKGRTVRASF

Consider `CCOC(=O)C1=C(COCCN)NC(C)=C(C(=O)OC)C1c1ccccc1Cl` (stereo not shown) [Amlodipine], for which the IC50 in series [1] (setting [8]) was 133 µM; in series [2] (setting [9]), 126 µM; in [3] (setting [10]), 38.5 µM; in series [4] (setting [11]), 38.8 µM; with aldehyde oxidase, 5.5 µM.

For `CC(C)c1c(C(=O)Nc2ccccc2)c(-c2ccccc2)c(-c2ccc(F)cc2)n1CC[C@@H](O)C[C@@H](O)CC(=O)O` [Atorvastatin], the IC50 was 243 µM in series [1] (setting [8]); 390 µM in [2] (setting [9]); 7.75 µM in series [3] (setting [10]); 9.85 µM in [4] (setting [11]); […] with CYP3A4. For the same molecule, in series [5], the “inhibition of the 15 hCA isoforms (hCA I–XIV)” value was “submicromolar–low nanomolar inhibition”.

For `NS(=O)(=O)c1cc(C(=O)O)c(NCc2ccco2)cc1Cl` [Furosemide], in series [6], the IC50 was 526 µM.

For `CCCCC1=NC2(CCCC2)C(=O)N1Cc1ccc(-c2ccccc2-c2nnn[nH]2)cc1` [Irbesartan], the IC50 in series [1] (setting [8]) amounted to 235 µM; in series [2] (setting [9]), 239 µM; in series [3] (setting [10]) it was 345 µM; in series [4] (setting [11]) it was 335 µM.

`O=[N+]([O-])O[C@@H]1CO[C@H]2[C@@H]1OC[C@@H]2O` [Isosorbide mononitrate]: the IC50 in series [1] worked out at 160 µM; in [2], 160 µM; in series [3], 6.08 µM; in series [4] it was 5.5 µM.

Take `CCOC(=O)C1=C(C)NC(C)=C(C(=O)OCC)C1c1ccccc1/C=C/C(=O)OC(C)(C)C` [Lacidipine]: the IC50 in series [1] (setting [8]) was found to be 696 µM; in series [2] (setting [9]) it was 482 µM; in series [3] (setting [10]) it was 150 µM; in [4] (setting [11]), 155 µM.

On to `COC(=O)C1=C(C)NC(C)=C(C(=O)OC(C)(C)CN(C)CCC(c2ccccc2)c2ccccc2)C1c1cccc([N+](=O)[O-])c1` (stereo not shown) [Lercanidipine hydrochloride], for which the IC50 is 201 µM in series [1] (setting [8]), 159 µM in series [2] (setting [9]), 294 µM in [3] (setting [10]) and 423 µM in [4] (setting [11]).

On to `COCCc1ccc(OCC(O)CNC(C)C)cc1` (stereo not shown) [Metoprolol succinate], for which the IC50 in [1] (setting [8]) was 400 µM; in series [2] (setting [9]) it was 168 µM; in [3] (setting [10]) it was 319 µM; in series [4] (setting [11]) it was 329 µM.

On to `OC(CNCC(O)C1CCc2cc(F)ccc2O1)C1CCc2cc(F)ccc2O1` (stereo not shown) [Nebivolol hydrochloride], for which the IC50 in series [1] (setting [8]) was found to be 73.7 µM; in series [2] (setting [9]), 95.3 µM; in [3] (setting [10]), 404 µM; in series [4] (setting [11]), 410 µM.

For `CC(=O)Oc1cc2c(s1)CCN(C(C(=O)C1CC1)c1ccccc1F)C2` (stereo not shown) [Prasugrel], the IC50 in series [1] (setting [8]) is 155 µM; in series [2] (setting [9]), 205 µM; in series [3] (setting [10]) it was 330 µM; in series [4] (setting [11]), 429 µM.

Consider `CCCNCC(O)COc1ccccc1C(=O)CCc1ccccc1` (stereo not shown) [Propafenone], for which the IC50 in series [1] (setting [8]) was 228 µM; in series [2] (setting [9]), 235 µM; in [3] (setting [10]), 2.8 µM; in series [4] (setting [11]) it was 3.02 µM. Besides, the “Inhibition type, hCA I” value in series [3] (Lineweaver–Burk plot) is on record as “non-competitive”. In addition, the results for the Ki in series [3] (from Lineweaver–Burk plot) and in [4] (from Lineweaver–Burk plot) were 2380 nM and 2970 nM, respectively. In [4] (Lineweaver–Burk plot), the “Inhibition type, hCA II” value is “non-competitive”.

Take `CCOC(=O)[C@H](CCc1ccccc1)N[C@@H](C)C(=O)N1[C@H](C(=O)O)C[C@@H]2CCC[C@@H]21` [Ramipril]: the IC50 in series [1] (setting [8]) was 281 µM; in series [2] (setting [9]) it was 154 µM; in [3] (setting [10]), 32.3 µM; in series [4] (setting [11]) it was 37.9 µM.

As for `COc1ccccc1OCC(O)CN1CCN(CC(=O)Nc2c(C)cccc2C)CC1` (stereo not shown) [Ranolazine], the IC50 in [1] (setting [8]) was determined as 503 µM; in [2] (setting [9]), 544 µM; in series [3] (setting [10]) it was 600 µM; in [4] (setting [11]) it was 645 µM.

Regarding `O=C(NC[C@H]1CN(c2ccc(N3CCOCC3=O)cc2)C(=O)O1)c1ccc(Cl)s1` [Rivaroxaban], the IC50 in series [1] (setting [8]) stood at 220 µM; in series [2] (setting [9]) it was 204 µM; in [3] (setting [10]), 189 µM; in series [4] (setting [11]) it was 244 µM.

Take `CCCSc1nc(N[C@@H]2C[C@H]2c2ccc(F)c(F)c2)c2nnn([C@@H]3C[C@H](OCCO)[C@@H](O)[C@H]3O)c2n1` [Ticagrelor]: the IC50 in series [1] (setting [8]) stood at 168 µM; in series [2] (setting [9]) it was 195 µM; in series [3] (setting [10]) it was 54 µM; in series [4] (setting [11]), 52.1 µM.

Take `COc1ccc(CN2CCNCC2)c(OC)c1OC` [Trimetazidine dihydrochloride]: the IC50 was found to be 196 µM in series [1] (setting [8]), 151 µM in series [2] (setting [9]), 112 µM in series [3] (setting [10]) and 112 µM in [4] (setting [11]).

Turning to `CC(=O)/N=c1/sc(S(N)(=O)=O)nn1C` [methazolamide], the “CA-I levels / CA-I expression” value in [7] (animal atherosclerosis model) is on record as “decreased CA-I levels; also recorded: suppresses CA-I expression”. The atherosclerosis result in series [7] is “significantly reduces atherosclerosis”.
